Here are results for 25 compounds from US5273989A, “3,5-disubstituted 2-isoxazolines and isoxazoles, agents containing them and their use” (Hoechst Aktiengesellschaft, priority 1990, dated 1993).

The LD50 is the dose at which mortality reaches 50%.

Where a name gives a salt, the structure may show the parent alone. Read-outs that look alike come from different tables or passages of the source.

The nature of data set [1]: Toxicity (LD50) in the mouse. As to conditions: in vivo. An excerpt:
As the examples investigated show considerable differences in toxicity compared to the standard substances, the LD50 values are also listed in Table 6,

A further data set concerns NMDA-induced cramps. Description: Inhibition of NMDA-induced cramps in the mouse. It is filed as in vivo. Conditions: po, 1 h; for inhibition in vivo at 0.3 mg/kg: 0.3 mg/kg p.o. The method, then: 4. Inhibition of NMDA-induced-cramps in the mouse
The examples listed below show neuroprotective activity in that they antagonize the cramps induced by NMDA (N-methyl-(D)-aspartate). To this end, intravenous injections of 20-30 mg/kg of NMDA are carried out on a male NMRI (Naval Medical Research Institute) mice of 22-24 g body weight, which leads to stereotypes, clonic cramps and in the majority of cases to mortality. In order to investigate an NMDA-antagonist activity of the test substances, they are administered orally one hour before NMDA. The animals are then observed for the abovementioned symptoms for up to 60 min. The number of animals with clonic cramps and the incidence of mortality, expressed in percent change compared to the control group, is regarded as the evaluation criterion.

Data set [2] has as its system high affinity 3H-D-aspartate absorption, synaptic vesicles (synaptosomes) from rat cortex. The data set is described as follows: "High affinity" absorption of 3H-aspartate in a vesicle preparation from rat brain. The data set is classed as biochemical. As to conditions: for Stimulation of the 3H-D-aspartate absorption, Stimulation (%): relative to control values (100%). The method, then:
1. "High affinity" absorption of ^3 H-aspartate in a vesicle preparation from rat brain.
Test principle: Fresh synaptic vesicles (synaptosomes) from rat cortex are incubated with buffer solution and ^3 H-D-aspartate and ^3 H-D-aspartate in the vesicles is measured. Preparations which in comparison to control synaptosomes increase the high affinity ^3 H-D-aspartate absorption and those which prevent the loss of ^3 H-D-aspartate by reliberation are regarded as particularly interesting.
Experimental protocol: The experiments for ^3 H-D-aspartate absorption were carried out by the method of Anand et al. (Biochem. Pharmacol., 35 (1986), 1055-1057). The synaptic vesicles were dissected out of cerebral cortex from male Sprague-Dawley rats. The preparations were tested at four concentrations as double samples in parallel with control samples containing buffer. The incubation medium (pH 7.4) contains: 1.2 mM KH2 PO4, 5 mM KCl, 5 mM pyruvate, 1.2 mM glucose, 1.2 mM MgCl2, 114 mM NaCl, 25 mM NaHCO3. For the non-specific ^3 H-D-aspartate absorption, NaCl was replaced by 114 mM choline chloride and NaHCO3 by 25 mM KHCO3. An aliquot of the vesicle suspension (about 25 μg/ml of test solution) was added to the test sample which was temperature controlled at 37° C. and aerated with Carbogen (5% CO2, 95% O2) and preincubated for 2 minutes. The three minutes incubation for the amino acid absorption was started by addition of 50 μl of ^3 H-D-aspartate (specific activity 25 Ci/mmol, 10 pmol/ml of test solution). The vesicles were separated from the incubation medium by filtration and additional washing of the adhering labeled amino acids using a Titertek cell harvester (Flow Laboratories, Meckenheim). The ^3 H-D-aspartate absorption was measured by means of a liquid scintillation counter (Canberra-Packard, Model 1500, Frankfurt).
The preparation activity is indicated in percent of the specific ^3 H-D-aspartate absorption, relative to control values (100%), in Table 3. Adenosine triphosphate (ATP) was used for comparison as the standard substance (see Table 3) and at 1 mM caused a 35% increase in the ^3 H-D-aspartate absorption.

Data set [3] concerns CA1 pyramidal cells of the hippocampus after forebrain ischemia. Description: Neuroprotection after forebrain ischemia in the gerbil. Conditions: 50 mg/kg p.o., 15 minutes before ischemia.
Description: A 5-minutes' ischemia of the forebrain with subsequent recirculation is produced in 20 male Mongolian gerbils under halothane anesthesia by bilateral closure of the corotid artery by means of aneurysm clips. 7 days later, the animals are decapitated under halothane anesthesia, the brains are fixed by immersion in Carnoy solution and the extent of neuron damage in the CA1 region of the hippocampus is determined "blind" with the aid of a 5-stage histopathological score. The test substance is administered intraperitoneally or orally 15 minutes before ischemia to each group of 10 gerbils. One ischemic control group, also of 10 animals, is treated with the respective solvents per test substance.
Setting [4] is: 50 mg/kg p.o., one hour before NMDA i.v., change compared to control group, read-out: Inhibition of convulsions.
[5] abbreviates: preparation concentration 100 μM.
[6] abbreviates: preparation concentration 10 μM.
The mark [7] stands for this setting: preparation concentration 500 μM.
Setting [8] is: preparation concentration 1000 μM (1 mM).
The mark [9] stands for this setting: read-out: Inhibition of mortality.

For `NCC1CC(CCC(=O)O)=NO1` (racemic) [Example 29, 5-Aminomethyl-2-isoxazoline-3-propionic acid, racemate], the LD50 in data set [1] (iv) was > 200 mg/kg. Besides, the inhibition in vivo at 50 mg/kg in the data set on NMDA-induced cramps (setting [4]) was 20%.
With `C[C@H]1C[C@@H](OC(=O)CCc2cc(CN)on2)CC(C)(C)C1` (relative stereo) [Example 9, cis-(3,3,5)trimethylcyclohexyl 5-aminomethylisoxazole-3-propionate toluene-4-sulfonate], the “Stimulation of the 3H-D-aspartate absorption, Stimulation (%)” value (shortened to “Stimulation … (%)”) in data set [2] (setting [5]) worked out at 19%.
For the compound `C[C@H]1C[C@@H](OC(=O)CCc2cc(C[N+](C)(C)C)on2)CC(C)(C)C1` (relative stereo) [Example 58, cis-(3,3,5)-trimethylcyclohexyl-5-trimethylammoniomethylisoxazole-3-propionate iodide], the “Stimulation … (%)” value in data set [2] (setting [6]) is reported as 35%.
Regarding `NCC1CC(CCC(=O)O)=NO1` (single isomer, unassigned) [Example 31, 5-Aminomethyl-2-isoxazoline-3-propionic acid, (+)-enantiomer], the “Stimulation … (%)” value in data set [2] (setting [7]) is 21%.
Consider `CC(C)[C@H]1CC[C@H](C)C[C@@H]1OC(=O)CCC1=NOC(CN)C1` (single isomer, unassigned; (+)) [Example 27, (+)-Menthyl 5-aminomethyl-2-isoxazoline-3-propionate toluene-4-sulfonate], for which the LD50 in data set [1] (iv) lay in the range of 50 to 100 mg/kg. The inhibition in vivo at 50 mg/kg in the data set with NMDA-induced cramps (setting [4]) amounted to 20%.
Take `CC(C)[C@@H]1CC[C@@H](C)C[C@H]1OC(=O)CCC1=NOC(CN)C1` (single isomer, unassigned; (-)) [Example 28, (-)-Menthyl 5-aminomethyl-2-isoxazoline-3-propionate toluene-4-sulfonate]: the inhibition in vivo at 50 mg/kg with NMDA-induced cramps (setting [4]) stood at 20%.
With `Nc1ncnc2c1ncn2[C@@H]1O[C@H](COP(=O)(O)OP(=O)(O)OP(=O)(O)O)[C@@H](O)[C@H]1O` [ATP, Adenosine triphosphate, reference compound], the “activity on 3H-D-aspartate absorption (in words)” value in data set [2] (at a lower concentration than 500 μm) was “inactive”. For the same compound, the “Stimulation … (%)” value in data set [2] (setting [7]) was 31%; in data set [2] (setting [8]), 35%; in data set [2] (preparation concentration 2000 μM) it was 57%; in data set [2] (preparation concentration 5000 μM) it was 121%.
On to `Cl.O=C(C1=NOC(CN2CCCC2)C1)N1CCCC1` (stereo not shown) [Example 3, 5-Pyrrolidinomethyl-3-pyrrolidinocarbonyl-2-isoxazoline hydrochloride], for which the “Stimulation … (%)” value in data set [2] (setting [7]) is listed as 20%.
As to `CCOC(=O)CCc1cc(CN)on1.Cl` [Example 6, ethyl 5-aminomethylisoxazole-3-propionate hydrochloride], in data set [1] (iv), the median lethal dose (LD50) was > 100 mg/kg. The inhibition in vivo at 50 mg/kg in the data set on NMDA-induced cramps (setting [4]) stood at 20%; in the data set with NMDA-induced cramps (setting [9]) it was 40%. Further, in data set [2] (setting [6]), the “Stimulation … (%)” value came to 17%.
With `CCOP(C)(=O)CCc1cc(CN)on1` (stereo not shown) [Example 10, ethyl 2-(5-aminomethylisoxazole-3-yl)ethyl-2-(P-methyl)phosphinic acid hydrochloride], the LD50 in data set [1] (iv) was > 100 mg/kg. Also, the inhibition in vivo at 50 mg/kg is 10% with NMDA-induced cramps (setting [4]) and 70% in the data set on NMDA-induced cramps (50 mg/kg p.o., one hour before NMDA i.v., change compared to control group, read-out: Inhibition of mortality). Besides, the “Stimulation … (%)” value in data set [2] (setting [7]) is 23%.
As to `CC(C)(N)c1cc(CCC(=O)O)no1` [Example 13, 5-(1-Amino-1-methylethyl)isoxazole-3-propionic acid], the “Stimulation … (%)” value in data set [2] (setting [7]) amounted to 33%.
On to `O=C(O)CCc1cc(CNCc2ccccc2)on1` [Example 14, 5-Benzylaminomethylisoxazole-3-propionic acid], for which, in data set [1] (ip), the LD50 is > 300 mg/kg. Moreover, the inhibition in vivo at 50 mg/kg with NMDA-induced cramps (setting [4]) amounted to 40%. Further, in data set [2] (setting [7]), the “Stimulation … (%)” value stood at 19%.
On to `CN(C)Cc1cc(CCC(=O)O)no1` [Example 15, 5-Dimethylaminomethylizoxazole-3-propionic acid], for which, in data set [1] (iv), the LD50 is > 100 mg/kg. Further, the values for the inhibition in vivo at 50 mg/kg in the data set on NMDA-induced cramps (setting [4]) and with NMDA-induced cramps (setting [9]) were 40% and 100%, respectively.
For the compound `CP(=O)(O)CCc1cc(CN)on1` [Example 16, 2-(5-Aminomethylisoxazol-3-yl)ethyl-2-(-methyl)phosphinic acid hydrochloride], the “Cell necroses (% change)” value in data set [3] (histopathological score CA1, treated versus control group) is given as -27 % change. The “Behavior score (% change)” value in data set [3] (treated versus control group) stood at 0 % change. Further, the inhibition in vivo at 50 mg/kg in the data set with NMDA-induced cramps (read-out: Inhibition of convulsions) and in the data set on NMDA-induced cramps (setting [9]) was 30% each time. Further, the “Stimulation … (%)” value in data set [2] (setting [8]) worked out at 19%.
Consider `CC(=O)NCc1cc(CCC(=O)O)no1` [Example 17, 5-Acetamidomethylisoxazole-3-propionic acid], for which the LD50 in data set [1] (ip) is > 300 mg/kg. The inhibition in vivo at 30 mg/kg in the data set on NMDA-induced cramps (30 mg/kg p.o., one hour before NMDA i.v., change compared to control group, read-out: Inhibition of convulsions) stood at 30%; in the data set with NMDA-induced cramps (setting [9]), 100%.
For `N=C(N)NCc1cc(CCC(=O)O)no1` [Example 23, 5-Guanidinomethylisoxazole-3-propionic acid], the LD50 in data set [1] (ip) is > 300 mg/kg. Moreover, the inhibition in vivo at 50 mg/kg in the data set on NMDA-induced cramps (setting [4]) was determined as 40%.
Turning to `NCc1cc(CCC(=O)NCC(=O)O)no1` [Example 24, N-(5-Aminomethylisoxazol-3-yl)propionylglycine], in data set [2] (setting [7]), the “Stimulation … (%)” value turned out to be 28%.
Consider `Cl.NCc1cc(CCO)no1` [Example 25, 5-Aminomethyl-3-(2-hydroxyethyl)isoxazole hydrochloride], for which the “Stimulation … (%)” value in data set [2] (setting [7]) is 20%.
For the compound `N.N.O=C(O)CCc1cc(CNCc2cc(CCC(=O)O)no2)on1` [Example 26, Bis(3-[2-carboxyethyl]isoxazol-5-ylmethyl)amine diammonium salt], the LD50 in data set [1] (iv) was > 100 mg/kg. Also, the inhibition in vivo at 50 mg/kg in the data set on NMDA-induced cramps (setting [4]) came out at 40%.
As for `CC(=O)NCC1CC(CCC(=O)O)=NO1` (stereo not shown) [Example 32], the LD50 in data set [1] (iv) is > 100 mg/kg. For the same compound, the results for the inhibition in vivo at 50 mg/kg with NMDA-induced cramps (setting [4]) and with NMDA-induced cramps (setting [9]) were 30% and 50%, respectively. Moreover, the “Stimulation … (%)” value in data set [2] (setting [5]) worked out at 19%.
`CN(C)C(=O)C1=NOC(CN)C1` (stereo not shown) [Example 39]: the “Stimulation … (%)” value in data set [2] (setting [8]) came to 14%.
Consider `Cl.NCc1cc(CCC(N)=O)no1` [Example 50, 5-aminomethylisoxazole-3-propionamide hydrochloride], for which the “Stimulation … (%)” value in data set [2] (setting [7]) is listed as 15%.
In the case of `O=C(O)CCc1cc(CNC(=O)CCC[N+](=O)[O-])on1` [Example 53], the inhibition in vivo at 50 mg/kg in the data set with NMDA-induced cramps (setting [4]) amounted to 33%.
As for `COC(=O)CCc1cc(C=NO)no1` [Example 55, methyl-3-hydroxyliminomethyl-isoxazole-5-propionate], the inhibition in vivo at 50 mg/kg in the data set with NMDA-induced cramps (setting [4]) stood at 33%; in the data set on NMDA-induced cramps (setting [9]) it was 100%.
Consider `C[C@]12N[C@H](Cc3ccccc31)c1ccccc12` [MK 801, (+)-5-methyl-10,11-dihydro-5H-dibenzo[a,d]cyclohept-5-en-10-imine, reference compound], for which, in data set [1] (iv), the LD50 was in the range of 30 to 60 mg/kg. In addition, the inhibition in vivo at 0.3 mg/kg with NMDA-induced cramps (one hour before NMDA i.v., change compared to control group, read-out: Inhibition of convulsions) was found to be 60%; with NMDA-induced cramps (one hour before NMDA i.v., change compared to control group, read-out: Inhibition of mortality), 60%.
